Measured values published in US9839701B2, “Aromatic amino acid derivative and positron emission topography (PET) probe using the same” (OSAKA UNIVERSITY, priority 2013, dated 2017).

Tests used:
[1] = test system: tumor derived from human pancreatic carcinoma cell line MIAPaCa-2; experiment: Accumulation in subcutaneous tumor of nude mouse, HPLC detection after PITC labeling; type: in vivo; conditions: 100 nmol via tail vein, tumor excised 1 hour after administration, FIG. 3
Description: A tumor derived from subcutaneously implanted MIAPaCa-2 cells in a nude mouse was excised, and 0.1 g of the tumor was subcutaneously transplanted into a 6-week-old female nude mouse (BALB/cAJc1-nu). One month after the transplantation, the compound of Example 1 was dissolved in physiological saline at a concentration of 1 mM, and 0.1 mL (100 nmol) of the solution or 0.1 mL of physiological saline was administered from the tail vein. One hour after the administration, the tumor was excised, the amino acids in the tumor tissue were labeled with phenylisothiocyanate (PITC), and the labeled compound was detected by HPLC for evaluation of the accumulation.

[2] = molecular target: T1, human LAT1 (Homo sapiens, UniProt Q01650); experiment: Promoting effect on amino acid efflux from human LAT1 stably expressing cell line; type: cell-based
T1 construct: expressed in transfected cells
T1 sequence (Q01650 whole entry): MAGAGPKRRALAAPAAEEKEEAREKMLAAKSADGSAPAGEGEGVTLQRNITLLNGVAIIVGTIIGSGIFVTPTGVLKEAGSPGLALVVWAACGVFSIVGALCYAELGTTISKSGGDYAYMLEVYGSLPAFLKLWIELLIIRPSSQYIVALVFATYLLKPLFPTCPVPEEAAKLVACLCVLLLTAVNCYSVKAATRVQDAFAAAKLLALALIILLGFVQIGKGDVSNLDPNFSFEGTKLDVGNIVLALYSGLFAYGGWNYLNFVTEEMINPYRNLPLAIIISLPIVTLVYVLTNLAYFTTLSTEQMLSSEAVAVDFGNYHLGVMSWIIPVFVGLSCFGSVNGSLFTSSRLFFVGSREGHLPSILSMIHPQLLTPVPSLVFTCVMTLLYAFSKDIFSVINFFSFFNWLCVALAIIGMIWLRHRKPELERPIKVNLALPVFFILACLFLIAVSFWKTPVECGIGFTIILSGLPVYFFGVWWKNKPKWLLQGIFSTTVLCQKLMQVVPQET
T1 sequence (P08195 102-630 partner): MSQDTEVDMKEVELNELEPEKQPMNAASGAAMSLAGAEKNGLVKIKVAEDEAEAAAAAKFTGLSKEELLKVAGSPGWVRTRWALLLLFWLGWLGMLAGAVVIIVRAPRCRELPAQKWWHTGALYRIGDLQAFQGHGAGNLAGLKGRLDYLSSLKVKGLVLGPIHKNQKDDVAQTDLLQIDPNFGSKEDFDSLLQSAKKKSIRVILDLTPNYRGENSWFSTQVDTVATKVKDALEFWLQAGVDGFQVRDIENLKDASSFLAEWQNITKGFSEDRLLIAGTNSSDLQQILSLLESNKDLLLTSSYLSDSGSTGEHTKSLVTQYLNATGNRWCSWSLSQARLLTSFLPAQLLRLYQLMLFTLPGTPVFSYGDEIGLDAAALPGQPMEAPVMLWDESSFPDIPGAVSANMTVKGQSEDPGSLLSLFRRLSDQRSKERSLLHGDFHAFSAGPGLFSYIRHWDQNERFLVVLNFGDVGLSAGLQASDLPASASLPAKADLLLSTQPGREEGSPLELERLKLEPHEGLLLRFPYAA
Description: In the same manner as in Example 3, the human LAT1 stably expressing cell line and the human LAT2 stably expressing cell line were seeded on separate collagen-coated 24-well plates, and after 48 hours, the cells were washed with an uptake buffer prewarmed at 37° C. An uptake buffer supplemented with 1 μM of [^14C]L-leucine or [^14C]L-alanine was added to each well, and [^14C]L-leucine or [^14C]L-alanine uptake by the cells was allowed to proceed at 37° C. for 10 minutes. […] The radioactivity in each supernatant was measured as the radioactivity of the amino acid released from the cells. Subsequently, 500 μL of 0.1 M NaOH was added to each well for cell lysis, 20 μL of the lysate was used for the measurement of the protein concentration, and the remaining lysate was used for the measurement of the residual radioactivity in the cells. The sum of the residual radioactivity and the released radioactivity in each experiment was checked to confirm that there was no great difference in the total radioactivity incorporated into the cells at the preloading among the experiments. […]
Based on the measured values of amino acid efflux at the indicated concentrations of each compound, the Km value for amino acid efflux from the human LAT1 stably expressing cell line and the Km value for amino acid efflux from the human LAT2 stably expressing cell line were calculated and shown in Table 5. […]

Accumulation in tumor [1]: accumulated intensively in the tumor
Promoting effect on amino acid efflux via human LAT1, compared with FAMT ([2]; 10 μM, 1 min, FIG. 2): twice or more higher than that of FAMT
Affinity for human LAT1 relative to FAMT ([2]; from Km values): ≥ 10 times
SMILES: NC(Cc1cc(OCCF)ccc1I)C(=O)O (stereo not drawn) [Example 1, 2-amino-3-(5-(2-fluoroethoxy)-2-iodophenyl)propanoic acid]
